Patent publication US9789089B2 (Gilead Sciences, Inc., priority 2013, dated 2017)
Where two headings read alike, the source gives them in different places.

Legend:
HIV-IIIb = assay: Test A: Antiviral Assay in MT4 Cells; format: cell-based, HIV-1; details: read-out: % inhibition at 6 μM
Protocol: Test A: Antiviral Assay in MT4 Cells
(§1) For the antiviral assay, 40 μL of 1× test concentration of 3-fold serially diluted compound in culture medium with 10% FBS was added to each well of a 384-well plate (10 concentrations) in quadruplicate. MT-4 cells were next mixed with HIV-IIIb at an m.o.i of 0.003 for 1 hour, after which time 35 μL of virus/cell mixture (2000 cells) was immediately added to each well containing 40 μL of diluted compound. The plates were then incubated at 37° C. for 5 days. After 5 days of incubation, 25 μl of 2× concentrated CellTiter-Glo™ Reagent (catalog #G7571, Promega Biosciences, Inc., Madison, Wis.) was added to each well containing MT-4 cells. Cell lysis was carried out by incubating at room temperature for 10 min and then chemiluminescence was read.

[1] = Test B: Cytotoxicity assay; format: cell-based; details: human, uninfected MT-4 cells, same protocol as Test A, CellTiter-Glo
Protocol: as §1
Test B:Cytotoxicity assay
Compound cytotoxicity and the corresponding CC50 values was determined using the same protocol as described in the antiviral assay (Test A) except that uninfected cells were used.

[2] = Human immunodeficiency virus 1, MT4, 120 h, percent inhibition of virus-induced cell killing at 6 μM drug concentration, from the dose response curve, MT-4 cells infected with HIV-IIIb, 5 days
[3] = Human immunodeficiency virus 1, IIIB, MT4, 120 h

Q: Which inhibition at 6 µM (HIV-IIIb; [2]) does the source give for O=C(Cn1nc(C(F)(F)F)c2c1CCCC2)N[C@@H](Cc1cc(F)cc(F)c1)c1nocc1-c1ccc(Cl)cc1 [Compound 27, (S)—N-(1-(4-(4-chlorophenyl)isoxazol-3-yl)-2-(3,5-difluorophenyl)ethyl)-2-(3-(trifluoromethyl)-4,5,6,7-tetrahydro-1H-indazol-1-yl)acetamide] here?
A: 28%

Q: What about the CC50 at 5 days [1] of the same compound?
A: 6.17 µM

Q: Which results are given for Cc1nc(-c2ccccc2)c([C@H](Cc2ccccc2)NC(=O)Cn2nc(C(F)(F)F)c3c2CCCC3)s1 [Compound 16, (S)—N-(1-(2-methyl-4-phenylthiazol-5-yl)-2-phenylethyl)-2-(3-(trifluoromethyl)-4,5,6,7-tetrahydro-1H-indazol-1-yl)acetamide]?
A: inhibition at 6 µM (HIV-IIIb; [2]): 0%; CC50 at 5 days [1]: 51.9 µM

Q: Which results are given for O=C(Cc1c[nH]c2ccc(F)cc12)NC(Cc1cc(F)cc(F)c1)c1ncoc1-c1ccc(Cl)cc1 (centres unmarked) [Compound 37, N-(1-(5-(4-chlorophenyl)oxazol-4-yl)-2-(3,5-difluorophenyl)ethyl)-2-(5-fluoro-1H-indol-3-yl)acetamide]?
A: inhibition at 6 µM (HIV-IIIb; [2]): 0%; CC50 at 5 days [1]: 10.2 µM

Q: With O=C(Cc1c[nH]c2ccc(F)cc12)N[C@@H](Cc1cc(F)cc(F)c1)c1nnc(-c2ccccc2)o1 [Compound 17B, (S)—N-(2-(3,5-difluorophenyl)-1-(5-phenyl-1,3,4-oxadiazol-2-yl)ethyl)-2-(5-fluoro-1H-indol-3-yl)acetamide] as the compound, how does the inhibition at 6 µM (HIV-IIIb; [3]) read?
A: 0%

Q: What about the CC50 at 5 days [1] of the same compound?
A: > 53 µM

Q: What does the source list for Cc1nnc(C(Cc2ccccc2)NC(=O)Cc2c[nH]c3ccc(O)cc23)n1-c1ccccc1 (centres unmarked) [Compound 10G, 2-(5-hydroxy-1H-indol-3-yl)-N-(1-(5-methyl-4-phenyl-4H-1,2,4-triazol-3-yl)-2-phenylethyl)acetamide]?
A: inhibition at 6 µM (HIV-IIIb; [2]): 51%; CC50 at 5 days [1]: > 53.2 µM

Q: Which results are given for O=C(Cn1nc(C(F)(F)F)c2c1CCCC2)N[C@@H](Cc1ccccc1)c1nccn1-c1ccccc1 [Compound 1E, (S)—N-(2-phenyl-1-(1-phenyl-1H-imidazol-2-yl)ethyl)-2-(3-(trifluoromethyl)-4,5,6,7-tetrahydro-1H-indazol-1-yl)acetamide]?
A: inhibition at 6 µM (HIV-IIIb; [3]): 83%; CC50 at 5 days [1]: 21.9 µM

Q: What does the source list for O=C(Cc1c[nH]c2ccc(O)cc12)NC(Cc1cc(F)cc(F)c1)c1ncoc1-c1ccc(Cl)cc1 (centres unmarked) [Compound 34, N-(1-(5-(4-chlorophenyl)oxazol-4-yl)-2-(3,5-difluorophenyl)ethyl)-2-(5-hydroxy-1H-indol-3-yl)acetamide]?
A: inhibition at 6 µM (HIV-IIIb; [2]): 0%; CC50 at 5 days [1]: 22.1 µM

Q: What does the source list for Cn1cnc(C(Cc2cc(F)cc(F)c2)NC(=O)Cc2c[nH]c3ccc(F)cc23)c1-c1ccc(Cl)cc1 (centres unmarked) [Compound 29G, N-(1-(5-(4-chlorophenyl)-1-methyl-1H-imidazol-4-yl)-2-(3,5-difluorophenyl)ethyl)-2-(5-fluoro-1H-indol-3-yl)acetamide]?
A: inhibition at 6 µM (HIV-IIIb; [3]): 44%; CC50 at 5 days [1]: 10.8 µM

Q: With COc1ccc2[nH]cc(CC(=O)NC(Cc3cc(F)cc(F)c3)c3ncoc3-c3ccc(Cl)cc3)c2n1 (centres unmarked) [Compound 35, N-(1-(5-(4-chlorophenyl)oxazol-4-yl)-2-(3,5-difluorophenyl)ethyl)-2-(5-methoxy-1H-pyrrolo[3,2-b]pyridin-3-yl)acetamide] as the compound, how does the inhibition at 6 µM (HIV-IIIb; [2]) read?
A: 0%

Q: What about the CC50 at 5 days [1] of the same compound?
A: 15.3 µM

Q: Which inhibition at 6 µM (HIV-IIIb; [2]) does the source give for Cn1cnc(C(Cc2cc(F)cc(F)c2)NC(=O)Cn2nc(C(F)(F)F)c3c2CCCC3)c1-c1ccc(Cl)cc1 (centres unmarked) [Compound 30, N-(1-(5-(4-chlorophenyl)-1-methyl-1H-imidazol-4-yl)-2-(3,5-difluorophenyl)ethyl)-2-(3-(trifluoromethyl)-4,5,6,7-tetrahydro-1H-indazol-1-yl)acetamide] here?
A: 69%

Q: What about the CC50 at 5 days [1] of the same compound?
A: 11 µM

Q: Which inhibition at 6 µM (HIV-IIIb; [3]) does the source give for COc1ccc(-n2ccnc2[C@@H](Cc2cc(F)cc(F)c2)NC(=O)Cn2nc(C(F)(F)F)c3c2CCCC3)cc1 [Compound 6B, (R)—N-(2-(3,5-difluorophenyl)-1-(1-(4-methoxyphenyl)-1H-imidazol-2-yl)ethyl)-2-(3-(trifluoromethyl)-4,5,6,7-tetrahydro-1H-indazol-1-yl)acetamide] here?
A: 4%

Q: And the CC50 at 5 days [1]?
A: 12 µM

Q: With COc1ccc2[nH]cc(CC(=O)NC(Cc3cc(F)cc(F)c3)c3cnc(-c4ccc(Cl)cc4)o3)c2n1 (centres unmarked) [Compound 21, N-(1-(2-(4-chlorophenyl)oxazol-5-yl)-2-(3,5-difluorophenyl)ethyl)-2-(5-methoxy-1H-pyrrolo[3,2-b]pyridin-3-yl)acetamide] as the compound, how does the inhibition at 6 µM (HIV-IIIb; [2]) read?
A: 2%

Q: What about the CC50 at 5 days [1] of the same compound?
A: 25.4 µM

Q: Which results are given for CC(C)CCn1ccnc1[C@H](Cc1ccccc1)NC(=O)Cn1nc(C(F)(F)F)c2c1CCCC2 [Compound 2, (S)—N-(1-(1-isopentyl-1H-imidazol-2-yl)-2-phenylethyl)-2-(3-(trifluoromethyl)-4,5,6,7-tetrahydro-1H-indazol-1-yl)acetamide]?
A: inhibition at 6 µM (HIV-IIIb; [2]): 6%; CC50 at 5 days [1]: 27.8 µM

Q: Which results are given for O=C(Cc1c[nH]c2ccc(O)cc12)NC(Cc1ccccc1)c1cnnn1-c1ccccc1 (centres unmarked) [Compound 12, 2-(5-hydroxy-1H-indol-3-yl)-N-(2-phenyl-1-(1-phenyl-1H-1,2,3-triazol-5-yl)ethyl)acetamide]?
A: inhibition at 6 µM (HIV-IIIb; [2]): 4%; CC50 at 5 days [1]: > 53 µM

Q: With O=C(Cc1c[nH]c2ccc(F)cc12)N[C@@H](Cc1ccccc1)c1nc(-c2ccccc2)no1 [Compound 18B, (S)-2-(5-fluoro-1H-indol-3-yl)-N-(2-phenyl-1-(3-phenyl-1,2,4-oxadiazol-5-yl)ethyl)acetamide] as the compound, how does the inhibition at 6 µM (HIV-IIIb; [3]) read?
A: 4%

Q: What about the CC50 at 5 days [1] of the same compound?
A: > 53 µM

Q: What does the source list for O=C(Cc1c[nH]c2ccc(O)nc12)NC(Cc1cc(F)cc(F)c1)c1ncoc1-c1ccc(Cl)cc1 (centres unmarked) [Compound 38, N-(1-(5-(4-chlorophenyl)oxazol-4-yl)-2-(3,5-difluorophenyl)ethyl)-2-(5-hydroxy-1H-pyrrolo[3,2-b]pyridin-3-yl)acetamide]?
A: inhibition at 6 µM (HIV-IIIb; [2]): 0%; CC50 at 5 days [1]: 19.1 µM

Q: For Cn1cnc(C(Cc2cc(F)cc(F)c2)NC(=O)Cc2c[nH]c3ccc(C(F)(F)F)cc23)c1-c1ccc(Cl)cc1 (centres unmarked) [Compound 32, N-(1-(5-(4-chlorophenyl)-1-methyl-1H-imidazol-4-yl)-2-(3,5-difluorophenyl)ethyl)-2-(5-(trifluoromethyl)-1H-indol-3-yl)acetamide], which inhibition at 6 µM (HIV-IIIb; [2]) is on record?
A: 0%

Q: And the CC50 at 5 days [1]?
A: 11.9 µM

Q: With COc1ccc(-n2ccnc2[C@H](Cc2cc(F)cc(F)c2)NC(=O)Cn2nc(C(F)(F)F)c3c2CCCC3)cc1 [Compound 5F, (S)—N-(2-(3,5-difluorophenyl)-1-(1-(4-methoxyphenyl)-1H-imidazol-2-yl)ethyl)-2-(3-(trifluoromethyl)-4,5,6,7-tetrahydro-1H-indazol-1-yl)acetamide] as the compound, how does the inhibition at 6 µM (HIV-IIIb; [3]) read?
A: 79%

Q: And the CC50 at 5 days [1]?
A: 13.5 µM

Q: Which inhibition at 6 µM (HIV-IIIb; [3]) does the source give for O=C(Cn1nc(C(F)(F)F)c2c1CCCC2)NC(Cc1ccccc1)c1cnnn1-c1ccccc1 (centres unmarked) [Compound 9E, N-(2-phenyl-1-(1-phenyl-1H-1,2,3-triazol-5-yl)ethyl)-2-(3-(trifluoromethyl)-4,5,6,7-tetrahydro-1H-indazol-1-yl)acetamide] here?
A: 0%

Q: And the CC50 at 5 days [1]?
A: 13.2 µM

Q: With Cc1nc(-c2ccccc2)c(C(Cc2ccccc2)NC(=O)Cc2c[nH]c3ccc(O)cc23)s1 (centres unmarked) [Compound 15C, 2-(5-hydroxy-1H-indol-3-yl)-N-(1-(2-methyl-4-phenylthiazol-5-yl)-2-phenylethyl)acetamide] as the compound, how does the inhibition at 6 µM (HIV-IIIb; [2]) read?
A: 0%

Q: What about the CC50 at 5 days [1] of the same compound?
A: 35 µM

Q: For Cc1nnc(C(Cc2ccccc2)NC(=O)Cn2nc(C(F)(F)F)c3c2CCCC3)n1-c1ccccc1 (centres unmarked) [Compound 11, N-(1-(5-methyl-4-phenyl-4H-1,2,4-triazol-3-yl)-2-phenylethyl)-2-(3-(trifluoromethyl)-4,5,6,7-tetrahydro-1H-indazol-1-yl)acetamide], which inhibition at 6 µM (HIV-IIIb; [2]) is on record?
A: 76%

Q: And the CC50 at 5 days [1]?
A: > 53 µM

Q: Which inhibition at 6 µM (HIV-IIIb; [3]) does the source give for O=C(Cn1nc(C(F)(F)F)c2c1CCCC2)NC(Cc1cc(F)cc(F)c1)c1cnc(-c2ccc(Cl)cc2)o1 (centres unmarked) [Compound 20, N-(1-(2-(4-chlorophenyl)oxazol-5-yl)-2-(3,5-difluorophenyl)ethyl)-2-(3-(trifluoromethyl)-4,5,6,7-tetrahydro-1H-indazol-1-yl)acetamide] here?
A: 1%

Q: What about the CC50 at 5 days [1] of the same compound?
A: 12.2 µM

Q: Which inhibition at 6 µM (HIV-IIIb; [2]) does the source give for O=C(Cc1c[nH]c2ccc(O)cc12)NC(Cc1cc(F)cc(F)c1)c1cnc(-c2ccc(Cl)cc2)o1 (centres unmarked) [Compound 24, N-(1-(2-(4-chlorophenyl)oxazol-5-yl)-2-(3,5-difluorophenyl)ethyl)-2-(5-hydroxy-1H-indol-3-yl)acetamide] here?
A: 5%

Q: And the CC50 at 5 days [1]?
A: 13.6 µM

Q: For COc1ccccc1Cn1ccnc1[C@H](Cc1ccccc1)NC(=O)Cc1c[nH]c2ccc(O)cc12 [Compound 3C, (S)-2-(5-hydroxy-1H-indol-3-yl)-N-(1-(1-(2-methoxybenzyl)-1H-imidazol-2-yl)-2-phenylethyl)acetamide], which inhibition at 6 µM (HIV-IIIb; [3]) is on record?
A: 19%

Q: And the CC50 at 5 days [1]?
A: 37.1 µM

Q: Which inhibition at 6 µM (HIV-IIIb; [2]) does the source give for Cc1ccccc1-c1scnc1C(Cc1cc(F)cc(F)c1)NC(=O)Cn1nc(C(F)(F)F)c2c1CCCC2 (centres unmarked) [Compound 14, N-(2-(3,5-difluorophenyl)-1-(5-(o-tolyl)thiazol-4-yl)ethyl)-2-(3-(trifluoromethyl)-4,5,6,7-tetrahydro-1H-indazol-1-yl)acetamide] here?
A: 60%

Q: What about the CC50 at 5 days [1] of the same compound?
A: 11.3 µM
